Here are results for one molecule from article PMC5760651, “Peptidomimetic blockade of MYB in acute myeloid leukemia” (Nature Communications, 2018).

One test concerns CBP/P300. Briefly: Streptavidin affinity purification of CBP/P300 from MV-411 cell extracts with BIO-MYBMIM, with peptide competition. Type of test: binding, human. As to conditions: 20-fold molar excess free peptide, MV-411 extracts, western blot. The protocol: Cells were lysed in RIPA buffer (Thermo Fisher) supplemented with a protease inhibitor mix comprised of AEBSF (0.5 mM concentration, Santa Cruz, SC-202041B), Bestatin (0.01 mM, Fisher/Alfa Aesar, J61106-MD), Leupeptin (0.1 mM, Santa Cruz, SC-295358B), and Pepstatin (0.001 mM, Santa Cruz, SC-45036A). Lysates were mechanically disrupted using Covaris S220 adaptive focused sonicator, according to the manufacturer’s instructions (Covaris, Woburn, CA). Lysates were cleared by centrifugation for 15 min at 18,000 × g and clarified lysates were quantified using the bicinchoninic acid assay (Pierce). Clarified lysates (20 μg of protein) were resolved using sodium dodecyl sulfate-polyacrylamide gel electrophoresis, and electroeluted using the Immobilon FL PVDF membranes (Millipore, Billerica, MA, USA). Membranes were blocked using the Odyssey Blocking buffer (Li-Cor, Lincoln, Nebraska, USA). The following primary antibodies were used as indicated: anti-MYB (1:1000, 05-175, Millipore), anti-CBP (1:1000, PA1-847, Invitrogen), anti-BCL2 (1:1000, 200-401-222, Rockland), anti-β actin (1:1000, 8H10D10, Cell Signaling). […] Blotted membranes were visualized using secondary antibodies conjugated to IRDye 800CW or IRDye 680RD (Goat anti-rabbit, 1:15,000, and goat anti-mouse, 1:15,000) and the Odyssey CLx fluorescence scanner, according to manufacturer’s instructions (Li-Cor, Lincoln, Nebraska, USA). […]
For orientation: A western blot detects proteins with antibodies after separation by electrophoresis.

Another test concerns MV411 and MOLM-13 cells. Nature of the test: Western blot of BCL2 protein. The class given is cell-based, human. The note with it: 20 μM, 6 hours and 24 hours. The protocol:
Cells were lysed in RIPA buffer (Thermo Fisher) supplemented with a protease inhibitor mix comprised of AEBSF (0.5 mM concentration, Santa Cruz, SC-202041B), Bestatin (0.01 mM, Fisher/Alfa Aesar, J61106-MD), Leupeptin (0.1 mM, Santa Cruz, SC-295358B), and Pepstatin (0.001 mM, Santa Cruz, SC-45036A). Lysates were mechanically disrupted using Covaris S220 adaptive focused sonicator, according to the manufacturer’s instructions (Covaris, Woburn, CA). Lysates were cleared by centrifugation for 15 min at 18,000 × g and clarified lysates were quantified using the bicinchoninic acid assay (Pierce). Clarified lysates (20 μg of protein) were resolved using sodium dodecyl sulfate-polyacrylamide gel electrophoresis, and electroeluted using the Immobilon FL PVDF membranes (Millipore, Billerica, MA, USA). Membranes were blocked using the Odyssey Blocking buffer (Li-Cor, Lincoln, Nebraska, USA). […] Blotted membranes were visualized using secondary antibodies conjugated to IRDye 800CW or IRDye 680RD (Goat anti-rabbit, 1:15,000, and goat anti-mouse, 1:15,000) and the Odyssey CLx fluorescence scanner, according to manufacturer’s instructions (Li-Cor, Lincoln, Nebraska, USA).
Supplementary Figure 9. BCL2 expression as measured by Western blot in MV411 and […]
ImageJ. BCL2 protein expression is quantified as a fraction of its respective PBS control […]

Non-standard residues stand in square brackets, D forms with d. Residues, ends and D or L forms follow the SMILES beside them.

As to `CC[C@@H](C)[C@@H](NC(=O)[C@@H](CCCCN)NC(=O)[C@@H](CCC(=O)O)NC(=O)[C@@H](CC(C)C)NC(=O)[C@@H](CCC(=O)O)NC(=O)[C@@H](CC(C)C)NC(=O)[C@@H](CC(C)C)NC(=O)[C@@H](CC(C)C)NC(=O)[C@@H](CCSC)NC(=O)[C@@H](CO)NC(=O)[C@H](NC(=O)[C@@H](CCC(=O)O)NC(=O)[C@@H](CC(N)=O)NC(=O)[C@@H](CCC(=O)O)NC(=O)[C@@H](CC(C)C)NC(=O)[C@@H](CCCCN)NC(C)=O)[C@H](C)O)C(=O)N[C@H](CCCNC(=N)N)C(=O)N[C@H](CCCCN)C(=O)NCC(=O)NCC(=O)N[C@H](CCCNC(=N)N)C(=O)N[C@H](CCCNC(=N)N)C(=O)N[C@H](CCCNC(=N)N)C(=O)N[C@H](CCC(N)=O)C(=O)N[C@H](CCCNC(=N)N)C(=O)N[C@H](CCCNC(=N)N)C(=O)N[C@H](CCCCN)C(=O)N[C@H](CCCCN)C(=O)N[C@H](CCCNC(=N)N)C(=O)NCC(=O)N[C@H](Cc1ccc(O)cc1)C(N)=O` [MYBMIM] (Ac-[dK][dL][dE][dN][dE][dT][dS][dM][dL][dL][dL][dE][dL][dE][dK][dI][dR][dK]GG[dR][dR][dR][dQ][dR][dR][dK][dK][dR]G[dY]-NH2), in the test on CBP/P300, the “Displacement of cellular CBP/P300 from BIO-MYBMIM beads by free peptide” value was “displacement of cellular CBP/P300”. Further, the BCL2 protein abundance result in the test with MV411 and MOLM-13 cells is reported as “significant albeit modest decrease”.
